Results reported in BigSolDB 2.1.

O=C(N[C@H](C(=O)O)c1ccccc1)OCc1ccccc1
solubility (mole fraction)
Conditions | 283.15 K | 288.15 K | 293.15 K | 298.15 K | 303.15 K | 313.15 K | 323.15 K
in 2-butanone | 0.0446 | – | 0.0596 | – | 0.0762 | 0.0957 | 0.111
in acetone | 0.0605 | – | 0.0786 | – | 0.1 | 0.129 | 0.159
in acetonitrile | 0.0067 | – | 0.00966 | – | 0.0143 | 0.0253 | 0.053
in dichloromethane | 0.00624 | 0.00703 | 0.00874 | 0.0112 | 0.0149 | – | –
in ethanol | 0.0235 | – | 0.0354 | – | 0.0581 | 0.0922 | 0.141
in ethyl acetate | 0.0209 | – | 0.0274 | – | 0.0371 | 0.0549 | 0.073
in isopropanol | 0.0107 | – | 0.0175 | – | 0.0328 | 0.0604 | 0.105
in methanol | 0.0325 | – | 0.0479 | – | 0.0794 | 0.111 | 0.146
in methyl acetate | 0.028 | – | 0.0399 | – | 0.0541 | 0.0739 | 0.0918
in n-propanol | 0.0141 | – | 0.0231 | – | 0.039 | 0.068 | 0.11
in water | 1.1e-05 | – | 2.4e-05 | – | 4.5e-05 | 5.7e-05 | 6.9e-05
